Here are results for 5 compounds from ChEMBL document CHEMBL1156481, “Enzymatic therapeutic index of acyclovir. Viral versus human polymerase gamma specificity” (J Biol Chem, 2007).

For orientation: Kd means the equilibrium constant for the complex coming apart.

Molecules are shown by their SMILES.

Experiment [1] has as its system Human alphaherpesvirus 1. The experiment is described as follows: Polymerizing activity of exonuclase deficient HSV1 DNA polymerase UL42 D368A mutant assessed as rate of nucleotide incorporation by pre-steady state single turnover assay.
Experiment [2] concerns Human alphaherpesvirus 1. The experiment in a line: Ratio of polymerization constant K to Kd for exonuclase deficient HSV1 DNA polymerase UL42 D368A mutant.
A short description of experiment [3]: Binding affinity to exonuclase deficient HSV1 DNA polymerase UL42 D368A mutant. Also noted: species or system Human alphaherpesvirus 1.
Experiment [4] deals with T1, DNA polymerase subunit gamma-1 (Homo sapiens), P54098 [E200A].
T1 sequence (whole entry): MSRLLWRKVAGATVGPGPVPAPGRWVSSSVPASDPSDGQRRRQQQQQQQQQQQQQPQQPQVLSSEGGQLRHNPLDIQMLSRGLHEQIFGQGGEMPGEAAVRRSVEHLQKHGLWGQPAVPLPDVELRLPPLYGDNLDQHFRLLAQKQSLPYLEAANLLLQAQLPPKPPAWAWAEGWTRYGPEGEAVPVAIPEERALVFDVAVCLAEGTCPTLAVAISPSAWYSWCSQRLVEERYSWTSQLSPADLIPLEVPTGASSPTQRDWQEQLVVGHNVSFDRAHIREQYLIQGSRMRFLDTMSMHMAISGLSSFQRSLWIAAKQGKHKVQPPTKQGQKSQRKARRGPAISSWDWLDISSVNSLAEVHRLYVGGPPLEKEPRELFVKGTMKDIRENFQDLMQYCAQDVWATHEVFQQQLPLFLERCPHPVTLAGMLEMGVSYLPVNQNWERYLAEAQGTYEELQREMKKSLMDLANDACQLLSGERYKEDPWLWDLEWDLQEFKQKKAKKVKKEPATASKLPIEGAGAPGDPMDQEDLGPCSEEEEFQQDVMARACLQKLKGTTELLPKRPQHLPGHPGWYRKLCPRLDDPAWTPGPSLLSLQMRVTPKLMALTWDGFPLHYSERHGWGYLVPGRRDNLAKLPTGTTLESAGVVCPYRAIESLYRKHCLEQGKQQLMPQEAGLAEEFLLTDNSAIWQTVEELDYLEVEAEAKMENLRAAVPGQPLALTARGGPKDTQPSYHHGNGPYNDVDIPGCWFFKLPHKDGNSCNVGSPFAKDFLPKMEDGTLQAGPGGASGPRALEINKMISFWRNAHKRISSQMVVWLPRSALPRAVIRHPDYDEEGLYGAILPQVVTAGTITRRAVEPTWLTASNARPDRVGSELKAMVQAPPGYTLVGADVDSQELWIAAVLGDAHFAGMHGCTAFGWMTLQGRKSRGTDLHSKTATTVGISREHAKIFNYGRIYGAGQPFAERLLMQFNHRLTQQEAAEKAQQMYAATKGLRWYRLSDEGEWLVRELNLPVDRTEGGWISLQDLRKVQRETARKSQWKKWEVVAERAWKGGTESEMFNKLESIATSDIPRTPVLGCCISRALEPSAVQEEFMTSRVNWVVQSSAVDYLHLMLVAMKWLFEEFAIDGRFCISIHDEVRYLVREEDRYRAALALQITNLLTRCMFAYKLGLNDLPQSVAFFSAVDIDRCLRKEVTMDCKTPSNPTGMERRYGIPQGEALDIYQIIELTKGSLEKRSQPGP
The experiment is described as follows: Ratio of polymerization constant K to Kd for human recombinant DNA polymerase gamma E200A mutant.

Experiment [5] shares this test system. The experiment in a line: Polymerizing activity of exonuclase deficient human recombinant DNA polymerase gamma E200A mutant assessed as rate of nucleotide incorporation by pre-steady state single nucleotide incorporation assay.
Experiment [6] concerns the target DNA polymerase subunit gamma-1 (Homo sapiens, UniProt P54098, E200A). The experiment in a line: Binding affinity to exonuclase deficient human recombinant DNA polymerase gamma E200A mutant.
Experiment [7] is filed under the species Homo sapiens. The experiment is described as follows: Activity of human wild type DNA polymerase gamma assessed as amplitude of excision of compound from correctly paired DNA primer during fast phase of excision in presence of 100 uM dNTPs.
For experiment [8], the species on record is Homo sapiens. The experiment is described as follows: Activity of human wild type DNA polymerase gamma assessed as rate of excision of compound from correctly paired DNA primer during fast phase of excision.
For experiment [9], the system named is Human alphaherpesvirus 1. The experiment is described as follows: Activity of wild type HSV1 DNA polymerase UL42 assessed as rate of excision of compound from correctly paired DNA primer during fast phase of excision.
Experiment [10] deals with Human alphaherpesvirus 1. The experiment is described as follows: Activity of wild type HSV1 DNA polymerase UL42 assessed as rate of excision of compound from 3'-frayed DNA primer with 8 mispaired bases at 3' end during fast phase of excision in presence of 100 uM dNTPs.
For experiment [11], the system named is Human alphaherpesvirus 1. The experiment is described as follows: Activity of wild type HSV1 DNA polymerase UL42 assessed as amplitude of excision of compound from 3'-frayed DNA primer with 8 mispaired bases at 3' end during fast phase of excision in presence of 100 uM dNTPs.
The species named for experiment [12] is Homo sapiens. The experiment is described as follows: Activity of human wild type DNA polymerase gamma assessed as amplitude of excision of compound from 3'-frayed DNA primer with 8 mispaired bases at 3' end during fast phase of excision.
For experiment [13], the species on record is Homo sapiens. The experiment in a line: Activity of human wild-type DNA polymerase gamma assessed as rate of excision of compound from correctly paired DNA primer during fast phase of excision in presence of 100 uM dNTPs.
The test system of experiment [14] is Human alphaherpesvirus 1. The experiment is described as follows: Activity of wild type HSV1 DNA polymerase UL42 assessed as amplitude of excision of compound from correctly paired DNA primer during fast phase of excision.
The species named for experiment [15] is Homo sapiens. The experiment is described as follows: Activity of human wild type DNA polymerase gamma assessed as rate of excision of compound from 3'-frayed DNA primer with 8 mispaired bases at 3' end during fast phase of excision in presence of 100 uM dNTPs.
The test system of experiment [16] is Human alphaherpesvirus 1. The experiment in a line: Activity of wild type HSV1 DNA polymerase UL42 assessed as rate of excision of compound from 3'-frayed DNA primer with 8 mispaired bases at 3' end during fast phase of excision.
For experiment [17], the system named is Human alphaherpesvirus 1. The experiment is described as follows: Activity of wild type HSV1 DNA polymerase UL42 assessed as amplitude of excision of compound from 3'-frayed DNA primer with 8 mispaired bases at 3' end during fast phase of excision.
Experiment [18] is filed under the species Homo sapiens. The experiment is described as follows: Activity of human wild type DNA polymerase gamma assessed as amplitude of excision of compound from 3'-frayed DNA primer with 8 mispaired bases at 3' end during fast phase of excision in presence of 100 uM dNTPs.
For experiment [19], the species on record is Homo sapiens. The experiment is described as follows: Activity of human wild type DNA polymerase gamma assessed as amplitude of excision of compound from correctly paired DNA primer during fast phase of excision.
For experiment [20], the species on record is Homo sapiens. The experiment in a line: Activity of human wild type DNA polymerase gamma assessed as rate of excision of compound from 3'-frayed DNA primer with 8 mispaired bases at 3' end during fast phase of excision.
Experiment [21] has as its system Human alphaherpesvirus 1. The experiment in a line: Activity of wild type HSV1 DNA […] UL42 assessed as amplitude of excision of compound from correctly paired DNA primer during fast phase of excision in presence of 100 uM dNTPs.
The test system of experiment [22] is Human alphaherpesvirus 1. The experiment is described as follows: Activity of wild type HSV1 DNA polymerase UL42 assessed as rate of excision of compound from correctly paired DNA primer during fast phase of excision in presence of 100 uM dNTPs.
Experiment [23] concerns Human alphaherpesvirus 1. The experiment in a line: Activity of wild type HSV1 DNA polymerase UL42 assessed as amplitude of excision of compound from 3'-frayed DNA primer with 8 mispaired bases at 3' end during slow phase of excision.
Experiment [24] is filed under the species Homo sapiens. The experiment in a line: Activity of human wild type DNA polymerase gamma assessed as amplitude of excision of compound from correctly paired DNA primer during slow phase of excision.
Experiment [25] is filed under the species Homo sapiens. The experiment is described as follows: Activity of human wild-type DNA polymerase gamma assessed as amplitude of excision of compound from 3'-frayed DNA primer with 8 mispaired bases at 3' end during slow phase of excision.
Experiment [26] concerns Human alphaherpesvirus 1. The experiment is described as follows: Activity of wild type HSV1 DNA polymerase UL42 assessed as amplitude of excision of compound from correctly paired DNA primer during slow phase of excision.
The subject of experiment [27] is Human alphaherpesvirus 1. The experiment in a line: Activity of wild type HSV1 DNA polymerase UL42 assessed as rate of excision of compound from correctly paired DNA primer during slow phase of excision.
The species entered for experiment [28] is Homo sapiens. The experiment is described as follows: Activity of human wild type DNA polymerase gamma assessed as rate of excision of compound from correctly paired DNA primer during slow phase of excision.
In experiment [29] the test system is Human alphaherpesvirus 1. The experiment is described as follows: Activity of wild type HSV1 DNA polymerase UL42 assessed as rate of excision of compound from 3'-frayed DNA primer with 8 mispaired bases at 3' end during slow phase of excision.
The species named for experiment [30] is Homo sapiens. The experiment is described as follows: Activity of human wild-type DNA polymerase gamma assessed as rate of excision of compound from 3'-frayed DNA primer with 8 mispaired bases at 3' end during slow phase of excision.

For the compound `Nc1nc2c(ncn2COCCOP(=O)(O)OP(=O)(O)OP(=O)(O)O)c(=O)[nH]1` [ACYCLOVIR TRIPHOSPHATE], the K with Human alphaherpesvirus 1 [1] stood at 10.1 s⁻¹; in experiment [5] it was 1.03 s⁻¹. In addition, the figures for the Ratio (with Human alphaherpesvirus 1 [2]; in experiment [4]) were 1.7 µM⁻¹ s⁻¹ and 0.17 µM⁻¹ s⁻¹, respectively. Also, the Kd in experiment [3] and in [6] was 6 µM in each case.
Turning to `Nc1nc(=O)c2ncn(COCCOP(=O)(O)O)c2[nH]1`, the Activity was 91 nM in the experiment listed under Homo sapiens [7]; 2.1 ×10⁻³ /s in the experiment filed under Homo sapiens [8]; 5.1 ×10⁻⁴ /s with Human alphaherpesvirus 1 [9]; > 0.3 s⁻¹ with Human alphaherpesvirus 1 [10]; 90 nM in the experiment with Human alphaherpesvirus 1 [11]; 94 nM in the experiment filed under Homo sapiens [12]. For the same compound, the Activity in the experiment filed under Homo sapiens [13] is 9.2 ×10⁻⁵ /s; in the experiment with Human alphaherpesvirus 1 [14], 86 nM; in the experiment listed under Homo sapiens [15] it was 3 ×10⁻⁴ /s; with Human alphaherpesvirus 1 [16] it was > 0.3 s⁻¹; with Human alphaherpesvirus 1 [17] it was 90 nM; in the experiment filed under Homo sapiens [18] it was 90 nM. The Activity in the experiment filed under Homo sapiens [19] was found to be 97 nM; in the experiment listed under Homo sapiens [20], 1.3 ×10⁻³ /s; in the experiment on Human alphaherpesvirus 1 [21], 85 nM; in the experiment with Human alphaherpesvirus 1 [22], 2 ×10⁻⁴ /s.
Regarding `Nc1nc2c(ncn2[C@H]2C[C@H](O)[C@@H](COP(=O)(O)OP(=O)(O)OP(=O)(O)O)O2)c(=O)[nH]1` [DEOXYGUANOSINE TRIPHOSPHATE], the results for the K (in the experiment with Human alphaherpesvirus 1 [1]; in experiment [5]) were 640 s⁻¹ and 37 s⁻¹, respectively. The figures for the Ratio (in the experiment with Human alphaherpesvirus 1 [2]; in experiment [4]) were 80 µM⁻¹ s⁻¹ and 45 µM⁻¹ s⁻¹, respectively. Moreover, the Kd in experiment [3] and in [6] was 0.8 µM each time.
For the compound `Nc1nc(O)c2ncn([C@H]3C[C@H](O)[C@@H](COP(=O)(O)O)O3)c2n1`, the Activity in the experiment on Human alphaherpesvirus 1 [23] was found to be 24 nM; in the experiment filed under Homo sapiens [24], 74 nM; in the experiment filed under Homo sapiens [8], 0.45 s⁻¹; in the experiment with Human alphaherpesvirus 1 [9], 12 s⁻¹; in the experiment listed under Homo sapiens [25], 27 nM; in the experiment on Human alphaherpesvirus 1 [26], 77 nM. Moreover, the Activity in the experiment listed under Homo sapiens [12] is 16 nM; in the experiment with Human alphaherpesvirus 1 [27] it was 0.25 s⁻¹; with Human alphaherpesvirus 1 [14], 11 nM; in the experiment on Human alphaherpesvirus 1 [16], 125 s⁻¹; in the experiment on Human alphaherpesvirus 1 [17] it was 65 nM; in the experiment listed under Homo sapiens [28], 0.02 s⁻¹. Besides, the Activity in the experiment on Human alphaherpesvirus 1 [29] was 1.3 s⁻¹; in the experiment listed under Homo sapiens [19], 16 nM; in the experiment listed under Homo sapiens [20], 2.6 s⁻¹; in the experiment listed under Homo sapiens [30], 0.27 s⁻¹.
For `Cc1cn([C@H]2C[C@H](O)[C@@H](COP(=O)(O)OP(=O)(O)OP(=O)(O)O)O2)c(=O)[nH]c1=O`, the K in the experiment with Human alphaherpesvirus 1 [1] worked out at 137 s⁻¹. Moreover, the Ratio in the experiment with Human alphaherpesvirus 1 [2] turned out to be 45 µM⁻¹ s⁻¹.
